Data from patent US7989469B2, “Certain chemical entities, compositions, and methods” (Cytokinetics, Incorporated, priority 2008, dated 2011).

The compounds below were run on rabbit skeletal muscle myofibril preparations (approximately 90% fast fibers) (assay: Activation of fast skeletal muscle fibers: enzymatic activity of myofibril preparations (PUMA assay system)). Settings: detergent treated myofibrils at pCa25%, 500 μM ATP; cells marked †: Mean value.
Format: biochemical
Set-up: unit not given here
Excerpt: Fast fiber activators were identified by measuring the enzymatic activity of muscle myofibril preparations using the proprietary PUMA™ (see, e.g., U.S. Pat. Nos. 6,410,254, 6,743,599, 7,202,051, and 7,378,254) assay system. Myofibril preparations consisted of rabbit skeletal muscle (approximately 90% fast fibers) that had been treated with a detergen (triton X-100) to remove cellular membranes and then homogenized. This preparation retained all of the sarcomeric components in a native conformation and the enzymatic activity was still regulated by calcium. Compounds were tested using a myofibril suspension and a level of calcium sufficient to increase enzymatic activity of the myofibrils to 25% of their maximal rate (termed pCa25%). Enzymatic activity was tracked via a kinetic assay with a UV absorption readout. Hits were identified as compounds that increased the rate of enzymatic activity by greater than 40% at 40 μM. Myofibril preparations are calcium regulated and were screened at a level of calcium sufficient to produce a 25% increase in enzymatic rate. Detergent treated myofibrils were incubated with 500 μM ATP and 40 μM compound and a kinetic read of UV absorbance performed. Data was normalized to control wells.

Compound	AC1.4 Median
6-chloro-1-(ethylpropyl)-7-(4-methylphenyl)imidazo[4,5-b]pyridin-2-ol	0.336†
6-chloro-7-(5-chloro(2-thienyl))-1-(ethylpropyl)imidazo[4,5-b]pyridin-2-ol	0.084†
CC[C@H](n1c(O)nc2ncc(Cl)c(-c3ccc(F)cc3)c21)C(C)(C)O [1-((1S)-1-ethyl-2-hydroxy-2-methylpropyl)-6-chloro-7-(4-fluorophenyl)imidazo[4,5-b]pyridin-2-ol]	0.320†
6-chloro-1-(ethylpropyl)-7-(5-fluoro(2-pyridyl))imidazo[4,5-b]pyridin-2-ol	0.268†
6-chloro-1-(ethylpropyl)-7-(4-fluorophenyl)imidazo[4,5-b]pyridin-2-ol	0.074†
CCC(CC)n1c(O)nc2ncc(Cl)c(-c3ccc(C#N)c(F)c3)c21 [4-(6-chloro-2-hydroxy-1-(pentan-3-yl)-1H-imidazo[4,5-b]pyridin-7-yl)-2-fluorobenzonitrile]	0.458†
6-chloro-1-(ethylpropyl)-7-(6-methoxy(2-pyridyl))imidazo[4,5-b]pyridin-2-ol	0.562†
CC(C)(C)n1c(O)nc2ncc(Cl)c(-c3ccc(F)cc3)c21 [1-(tert-butyl)-6-chloro-7-(4-fluorophenyl)imidazo[4,5-b]pyridin-2-ol]	0.199†

Same assay, conditions: detergent treated myofibrils at pCa25%, 500 μM ATP; median value (no †)

Compound	AC1.4 Median
CC[C@@H](CNC(C)=O)c1nc2nc(O)[nH]c2c(-c2ccc(F)cc2)c1Cl [N-{(2S)-2-[6-chloro-7-(4-fluorophenyl)-2-hydroxyimidazo[4,5-b]pyridinyl]butyl}acetamide]	8.4925
CC(C)(CO)n1c(O)nc2ncc(Cl)c(-c3ccc(F)cc3)c21 [6-chloro-7-(4-fluorophenyl)-1-(2-hydroxy-tert-butyl)imidazo[4,5-b]pyridin-2-ol]	0.760
6-chloro-1-(ethylpropyl)-7-pyrazol-3-ylimidazo[4,5-b]pyridin-2-ol	26.881
CCC(CC)n1c(O)nc2ncc(Cl)c(-c3ccccc3C(=O)O)c21 [2-[6-chloro-1-(ethylpropyl)-2-hydroxyimidazo[4,5-b]pyridin-7-yl]benzoic acid]	30.881
OCCCn1c(O)nc2ncc(Cl)c(-c3ccc(F)cc3)c21 [6-chloro-7-(4-fluorophenyl)-1-(3-hydroxypropyl)imidazo[4,5-b]pyridin-2-ol]	7.015
6-chloro-1-(ethylpropyl)-7-[3-(hydroxymethyl)phenyl]imidazo[4,5-b]pyridin-2-ol	14.377
6-[6-chloro-1-(ethylpropyl)-2-hydroxyimidazo[4,5-b]pyridin-7-yl]pyridine-3-carbonitrile	2.892
6-chloro-1-(ethylpropyl)-7-(3-methylphenyl)imidazo[4,5-b]pyridin-2-ol	0.482
CC[C@H](COC)n1c(O)nc2ncc(Cl)c(-c3ccc(F)cc3)c21 [1-[(1R)-1-(methoxymethyl)propyl]-6-chloro-7-(4-fluorophenyl)imidazo[4,5-b]pyridin-2-ol]	0.249
CC[C@@H](CO)n1c(O)nc2ncc(Cl)c(-c3cnccn3)c21 [1-((1S)-1-ethyl-2-hydroxyethyl)-6-chloro-7-pyrazin-2-ylimidazo[4,5-b]pyridin-2-ol]	40.701
CC[C@@H](n1c(O)nc2ncc(Cl)c(-c3ccc(F)cc3)c21)C(C)(C)O [1-((1R)-1-ethyl-2-hydroxy-2-methylpropyl)-6-chloro-7-(4-fluorophenyl)imidazo[4,5-b]pyridin-2-ol]	0.537
CC[C@@H](CO)n1c(O)nc2ncc(Cl)c(-c3ccc(F)c(F)c3)c21 [1-((1S)-1-ethyl-2-hydroxyethyl)-7-(3,4-difluorophenyl)-6-chloroimidazo[4,5-b]pyridin-2-ol]	0.707
6-chloro-1-(ethylpropyl)-7-(1-methylpyrazol-4-yl)imidazo[4,5-b]pyridin-2-ol	17.805
CC[C@H](CO)n1c(O)nc2ncc(Cl)c(-c3ccc(F)cc3)c21 [1-((1R)-1-ethyl-2-hydroxyethyl)-6-chloro-7-(4-fluorophenyl)imidazo[4,5-b]pyridin-2-ol]	2.367
6-chloro-1-(ethylpropyl)-7-(3-pyridyl)imidazo[4,5-b]pyridin-2-ol	8.030
CCC(C)n1c(O)nc2ncc(Cl)c(-n3cccn3)c21 (centres unmarked) [6-chloro-1-(methylpropyl)-7-pyrazolylimidazo[4,5-b]pyridin-2-ol]	1.3927
7-(1H-indazol-6-yl)-6-chloro-1-(ethylpropyl)imidazo[4,5-b]pyridin-2-ol	4.216

Compound	AC1.4 Median
CC[C@H](C)n1c(O)nc2ncc(Cl)c(-n3cccn3)c21 [1-((1S)-1-methylpropyl)-6-chloro-7-pyrazolylimidazo[4,5-b]pyridin-2-ol]	1.0174
6-chloro-1-(ethylpropyl)-7-pyrazol-4-ylimidazo[4,5-b]pyridin-2-ol	38.791
6-chloro-1-(ethylpropyl)-7-(2-methyl(4-pyridyl))imidazo[4,5-b]pyridin-2-ol	14.091
6-chloro-1-(ethylpropyl)-7-(5-fluoro(3-pyridyl))imidazo[4,5-b]pyridin-2-ol	4.428
6-chloro-1-(ethylpropyl)-7-(5-methyl(1,2,4-oxadiazol-3-yl))imidazo[4,5-b]pyridin-2-ol	4.017
6-chloro-7-(5-chloro(2-pyridyl))-1-(methylethyl)imidazo[4,5-b]pyridin-2-ol	1.781
2-[6-chloro-1-(ethylpropyl)-2-hydroxyimidazo[4,5-b]pyridin-7-yl]benzenecarbonitrile	2.886
6-chloro-7-(5-chloro(3-pyridyl))-1-(ethylpropyl)imidazo[4,5-b]pyridin-2-ol	1.899
CCC(CC)n1c(O)nc2ncc(Cl)c(-c3ccccc3C=O)c21 [2-[6-chloro-1-(ethylpropyl)-2-hydroxyimidazo[4,5-b]pyridin-7-yl]benzaldehyde]	1.689
6-chloro-7-(2-chloro-4-methylphenyl)-1-(ethylpropyl)imidazo[4,5-b]pyridin-2-ol	0.587
1-(ethylpropyl)-7-phenylimidazo[4,5-b]pyridin-2-ol	2.083
CC[C@@H](CO)n1c(O)nc2ncc(F)c(-c3ccc(F)cc3)c21 [1-((1S)-1-ethyl-2-hydroxyethyl)-6-fluoro-7-(4-fluorophenyl)imidazo[4,5-b]pyridin-2-ol]	4.204
CC[C@@H](CO)n1c(O)nc2ncc(Cl)c(-c3ccc(F)cn3)c21 [1-((1S)-1-ethyl-2-hydroxyethyl)-6-chloro-7-(5-fluoro(2-pyridyl))imidazo[4,5-b]pyridin-2-ol]	7.549
6-chloro-7-(3-chloro(4-pyridyl))-1-(ethylpropyl)imidazo[4,5-b]pyridin-2-ol	4.471
CC[C@H](COC)n1c(O)nc2ncc(Cl)c(-c3ccc(F)cn3)c21 [1-[(1R)-1-(methoxymethyl)propyl]-6-chloro-7-(5-fluoro(2-pyridyl))imidazo[4,5-b]pyridin-2-ol]	1.142
6-chloro-1-(ethylpropyl)-7-(2-methylphenyl)imidazo[4,5-b]pyridin-2-ol	1.688
